The results in this text go back to US20060148838A1, “Novel pyrrolodihydroisoquinolines useful in the treatment of cancer” (Altana Pharma AG, priority 2003, published 2006).

Usually IC50 stands for the concentration that inhibits the measured activity by half. Usually melting point stands for the temperature, or range, at which the solid turns liquid.

For data set [1], the system named is NCl-H460 non-small cell lung cancer cells. Nature of the data set: Alamar Blue cell viability assay, anti-proliferative/cytotoxic activity. The data set is classed as cell-based. The following applies: 72 hours incubation, one range stated for all listed Examples, read-out: −log IC50 NCl-H460 (converted). The method, then: The anti-proliferative/cytotoxic activity of the compounds described herein, can be tested on NCl-H460 non-small cell lung cancer cells using the Alamar Blue cell viability assay (described in O'Brien et al. Eur J Biochem 267, 5421-5426, 2000). The compounds are dissolved as 20 mM solutions in dimethylsulfoxide (DMSO) and subsequently diluted in semi-logarithmic steps. DMSO dilutions are further diluted 1:100 into Dulbecco's modified Eagle's medium (DMEM) containing 10% fetal calf serum to a final concentration twice as much as the final concentration in the test. NCl-460 cells are seeded into 96 well flat bottom plates at a density of 4000 cells per well in a volume of 50 μl per well. 24 hours after seeding the 50 μl each of the compound dilutions in DMEM medium are added into each well of the 96 Well plate. Each compound dilution is tested as quadruplicates. Wells containing untreated control cells are filled with 50 μl DMEM medium containing 1% DMSO. The cells are then incubated with the substances for 72 hours at 37° C. In a humified atmosphere containing 5% carbon dioxide. To determine the viability of the cells, 10 μl of an Alamar Blue solution (Biosource) are added and the fluorescence is measured at an extinction of 544 nm and an emission of 590 nm. For the calculation of cell viability the emission value from untreated cells is set to 100% viability and the emission rates of treated cells are set in relation to the values of untreated cells. Viabilities are expressed as % values.
The corresponding IC50 values of the compounds for anti-proliferative/cytotoxic activity are determined from the concentration-effect curves.
Representative advantageous IC50 values for anti-proliferation/cytotoxicity determined for the compounds mentioned and numbered as Examples in the examples above follow from the following table A, in which the numbers of the compound correspond to the numbers of the examples.
A general note: Resazurin is reduced to fluorescent resorufin, in cell work by metabolically active cells.

SMILES strings stand for the structures.

On to `CCOC(=O)c1c(-c2cc(C)c(O)c(C)c2)c(C)n2c1-c1cc(OC(F)F)c(OC)cc1CC2` [Example 5, 9-(1,1-Difluoro-methoxy)-2-(4-hydroxy-3,5-dimethyl-phenyl)-8-methoxy-3-methyl-5,6-dihydro-pyrrolo[2,1-a]isoquinoline-1-carboxylic acid ethyl ester], for which the melting point fell in the range of 152 to 155 °C. For the same molecule, the IC50 in data set [1] is 0.398 to 3.16 µM.

Molecule `CCOC(=O)c1c(-c2cc(C)c(O)c(C)c2)c(C)n2c1-c1cc(OC)c(OC)cc1C(C)(C)C2` [Example 1, 2-(4-hydroxy-3,5-dimethyl-phenyl)-8,9-dimethoxy-3,6,6-trimethyl-5,6-dihydro-pyrrolo[2,1-a]isoquinoline-1-carboxylic acid ethyl ester] showed a melting point of 200 to 202 °C. Further, in data set [1], the IC50 was 0.398 to 3.16 µM.

In turn, `CCOC(=O)c1c(-c2cc(C)c(O)c(C)c2)c(C)n2c1-c1cc(OC)c(OC(F)F)cc1CC2` [Example 9, 8-(1,1-Difluoro-methoxy)-2-(4-hydroxy-3,5-dimethyl-phenyl)-9-methoxy-3-methyl-5,6-dihydro-pyrrolo[2,1-a]isoquinoline-1-carboxylic acid ethyl ester] showed a melting point of 126 to 128 °C. Besides, the IC50 in data set [1] is 0.398 to 3.16 µM.

`CCC(C)NC(=O)c1c(-c2cc(C)c(O)c(C)c2)c(C)n2c1-c1cc(OC)c(OC)cc1CC2` (stereo not drawn) [Example 36, 2-(4-Hydroxy-3,5-dimethyl-phenyl)-8,9-dimethoxy-3-methyl-5,6-dihydro-pyrrolo[2,1-a]isoquinoline-1-carboxylic acid sec-butylamide] came in with a melting point of 238 to 240 °C. The concentration for half-maximal inhibition (IC50) in data set [1] was 0.398 to 3.16 µM.

On to `CCOC(=O)c1c(-c2cccc(N(C)C)c2)c(C)n2c1-c1cc(OC(F)F)c(OC)cc1CC2` [Example 4, 9-(1,1-Difluoro-methoxy)-2-(3-dimethylamino-phenyl)-8-methoxy-3-methyl-5,6-dihydro-pyrrolo[2,1-a]isoquinoline-1-carboxylic acid ethyl ester], for which the melting point is 107 to 110 °C. For the same molecule, in data set [1], the IC50 was 0.398 to 3.16 µM.

On to `CCOC(=O)c1c(-c2cc(C)c(O)c(C)c2)c(C)n2c1-c1cc(N)c(OC)cc1CC2` [Example 25, 9-Amino-2-(4-hydroxy-3,5-dimethyl-phenyl)-8-methoxy-3-methyl-5,6-dihydro-pyrrolo[2,1-a]isoquinoline-1-carboxylic acid ethyl ester], for which the melting point was 104 to 106 °C. The half-maximal inhibitory concentration (IC50) in data set [1] is 0.398 to 3.16 µM.

`CCOC(=O)c1c(-c2cc(C)c(O)c(C)c2)c(C)n2c1-c1cc([N+](=O)[O-])c(OC)cc1CC2` [Example 22, 2-(4-Hydroxy-3,5-dimethyl-phenyl)-8-methoxy-3-methyl-9-nitro-5,6-dihydro-pyrrolo[2,1-a]isoquinoline-1-carboxylic acid ethyl ester] had a melting point of 209 to 211 °C. Also, in data set [1], the half-maximal inhibitory concentration (IC50) is 0.398 to 3.16 µM.

`CCOC(=O)c1c(-c2cc(C)c(O)c(C)c2)c(C)n2c1-c1cc(OC)c(OCCOC)cc1CC2` [Example 18, 2-(4-Hydroxy-3,5-dimethyl-phenyl)-9-methoxy-8-(2-methoxy-ethoxy)-3-methyl-5,6-dihydro-pyrrolo[2,1-a]isoquinoline-1-carboxylic acid ethyl ester] showed a melting point of 169 to 171 °C. For the same molecule, the IC50 in data set [1] is 0.398 to 3.16 µM.

As to `COc1cc2c(cc1OC)-c1c(C(=O)Nc3ccccc3)c(-c3cc(C)c(O)c(C)c3)c(C)n1CC2` [Example 34, 2-(4-Hydroxy-3,5-dimethyl-phenyl)-8,9-dimethoxy-3-methyl-5,6-dihydro-pyrrolo[2,1-a]isoquinoline-1-carboxylic acid phenylamide], the melting point lay in the range of 271 to 273 °C. Besides, the IC50 in data set [1] is 0.398 to 3.16 µM.
